The record followed here is patent US12173349B2, “Lung protease nanosensors and uses thereof” (Massachusetts Institute of Technology, priority 2018, dated 2024).

In assay [1] the test system is P. aeruginosa strain PA01 lung infection. The assay can be described thus: urinary reporter ELISA after intravenous ABNs in bacterial pneumonia model. The format is in vivo, mice. As to conditions: for urine signal in ciprofloxacin-treated versus doxycycline-treated mice / urine signal relative to healthy controls: 24 hours post-infection; for urine signal after ciprofloxacin treatment above baseline: 7 days post-infection, 4 days of ciprofloxacin; for increase in urinary reporter after initiation of infection relative to pre-infection: ABNs injected intravenously 24 hours post infection, urine at 1 hour; for ROC AUC, infected from healthy mice: FIG. 11D, n=9 mice; for ROC AUC, ciprofloxacin treated from pre-treatment signal (Treatment): FIG. 12, 7 days post-infection; for ROC AUC, infected from healthy (Infection): FIG. 12, administered prior to drug treatment; for ROC AUC, effective versus ineffective treatment (doxycycline-treated vs ciprofloxacin-treated): treatment started 5 hours post-infection, ABNs 24 hours post-infection. From the text: Peptide substrates were coupled to 40 kDa 8-arm PEG-MAL via terminal cysteines on each peptide to generate ABNs for use in vivo (Dudani et al., Adv Funct Mater, 26, 2919, 2016; Kwong et al., Proc Natl Acad Sci, 112, 12627, 2015). Each substrate is barcoded with an independent ligand and a biotin on a stable urinary peptide reporter that can be measured by a sandwich ELISA after proteolysis of the substrate, release of the reporter, and clearance into the urine (Warren et al., Proc Natl Acad Sci USA, 111, 3671, 2014; Lin et al., ACS Nano, 0) (FIGS. 11A and 16). The selection of a pair of distinct, ligand-encoded reporters enables simultaneous, multiplexed administration of the two nanosensors. Following initiation of the infection, ABNs were injected intravenously after 24 hours and collected urine an hour after the administration of the nanosensors.
To evaluate whether the presently disclosed ABNs could be used to monitor clearance of infection, PA01 was instilled intratracheally into mice, the pair of ABNs was administered the following day to confirm and set a baseline for infection in each individual, and then antibiotic treatment was initiated with ciprofloxacin, a commonly used broad spectrum antibiotic with activity against gram-negative bacteria, including PA01 (Zeiler et al., Ciprofloxacin, 14, 1986). The diagnostic ABN injection and urine collection was repeated 7 days post-infection (with an interceding 4 days of drug treatment) to determine whether the substrates could monitor recovery from infection following effective antibiotic treatment (FIG. 12A). After ciprofloxacin treatment, LAS urine signal returned to baseline, though ELA remained elevated (1.2-fold and 2.2-fold above baseline, respectively; […]).
Individual responses to antimicrobial treatment can be highly variable, dependent upon the strain of pathogen and the presence of antibiotic resistance, and current clinical tests take 24-72 hours to identify antibiotic susceptibility (Caliendo et al., Clin Infect Dis, 57, S139, 2013). In addition, current clinical tests used to visualize lung infections (e.g., chest X-ray and computed tomography) are often unable to distinguish active infections from those that have been adequately treated until several weeks after antibiotic therapy is complete, because the airspace opacifications characteristic of pneumonia remain apparent on routine radiography screens (Bruns et al., J Gen Intern Med, 25, 203, 2010). Therefore, the ability of the infection-tracking ABNs to identify successful versus insufficient treatment on an acute time-scale shortly after therapeutic initiation was sought to be evaluated. Only 5 hours after establishing lung infections with PA01, antibiotic treatment was initiated with either ciprofloxacin (efficacious against P. aeruginosa) or doxycycline (ineffective against gram-negative bacteria including P. aeruginosa) (FIG. 13A). The following day, multiplexed LAS-E and ELA-E ABNs were administered and urine was collected. […] The persistent Pseudomonas immunostaining observed following ciprofloxacin treatment might be derived from residual Pseudomonas antigens remaining from lysed bacteria that had not yet been cleared by the immune system. Alternatively, the reduced LAS sensor reading in these treated mice could reflect a suppression of LasA secretion from bacteria as they are killed by the potent antibiotic.
All animal studies were approved by Massachusetts Institute of Technology's Committee on Animal Care. For infection studies, 5-7 week old female CD-1 mice were innoculated intratracheally with 1.25×10^6 CFU of P. aeruginosa strain PA01 in 50 μL of PBS. Bacteria were cultured overnight in LB broth, then subcultured and grown to log phase (OD600≈0.5). Bacteria were pelleted, washed with sterile PBS, and then resuspended to the requisite concentration for intratracheal administration. Mice were administered buprenorphine and meloxicam several hours after infection. […]
A general note: In an ELISA, binding on a coated surface is turned into a signal by an enzyme label.

Assay [2] concerns 15 proteases in the LUAD protease panel. Description: in vitro recombinant protease screen of FRET-paired substrates. The settings on record: fluorescence fold change at 45 minutes; 1 μM substrate, 12.5 nM recombinant enzyme; MP metallo-, SP serine, AP aspartic protease. The format is biochemical. The source says:
Hundreds of peptide sequences have been previously designed and validated as protease substrates, leveraging known catalytic specificities of different protease families, published datasets and substrate sequences in databases like cutDB and MEROPS (Igarashi et al., Nucleic Acids Res 35, D546-549, 2007; Rawlings et al., Nucleic Acids Res 46, D624-D632, 2018). Fourteen of these substrates were nominated in an effort to cover the specificity profiles of metallo-, serine and aspartic endoproteases, all of which were included in the LUAD protease panel, and the catalytic activity of each protease-substrate pair was characterized. Quenched probes that incorporated the 14 peptide substrates were synthesized such that they fluoresce upon proteolytic cleavage to enable real-time monitoring of protease activity in vitro (FIG. 3A and Table 2). Each probe was incubated with each protease in the panel and fluorescence was monitored over 45 minutes. Shown are sample kinetic plots monitoring dequenching of the 14 FRET-paired probes when incubated with (above) and without (below) recombinant matrix metalloproteinase 3 (MMP3) (FIG. 3B). […] See also FIG. 19.
Fluorogenic protease substrates were synthesized by CPC Scientific. Recombinant proteases were purchased from Enzo Life Sciences, R&D Systems and Haematologic Technologies. For recombinant protease assays, fluorogenic substrates PPQ1-14 (1 μM final concentration) were incubated in 30 μL final volume in appropriate enzyme buffer, according to manufacturer specifications, with 12.5 nM recombinant enzyme at 37° C. (FIG. 3). Proteolytic cleavage of substrates was quantified by increases in fluorescence over time by fluorimeter (Tecan Infinite M200 Pro). Enzyme cleavage rates were quantified as relative fluorescence increase over time normalized to fluorescence before addition of protease. Hierarchical clustering was performed in GENE-E, using fluorescence fold changes at 45 minutes.

*1 amine or outer side, *2 acyl side, *3 side chain or, on linkers, in order; H or OH if unused. Where no end group is shown, it is not given here. [ ]: non-standard residue; d: D form. ξ: configuration not given here. +10F = isotope-labelled Phe, +10, O=[13C]([13C@H]([13CH2][13c]1[13cH][13cH][13cH][13cH][13cH]1)[15NH][*:1])[*:2]; ξβ3hPhg(2-NO2) = O=C(CC(N[*:1])c1ccccc1[N+](=O)[O-])[*:2]; FAM = carboxyfluorescein fluorophore label; AF488 = Alexa Fluor 488 fluorophore label; +1A = isotope-labelled Ala, +1; +1F = isotope-labelled Phe, +1; +2G = isotope-labelled Gly, +2; +4A = isotope-labelled Ala, +4

As for “LAS-E: LasA substrate with AF488 ligand-encoded reporter and biotin (SEQ ID NO: 46), coupled to 40 kDa 8-arm PEG-MAL ([dE]G[dV][dN][dD][dN][dE][dE]G[dF][dF][dS][dA][dR]K(AF488)GGLGGGAGC; also: biotin, site not given here, coupled to 40 kDa 8-arm PEG-MAL, site not given here)”, in assay [1], the “urine signal in ciprofloxacin-treated versus doxycycline-treated mice” value is reported as “significantly lower”; the “urine signal after ciprofloxacin treatment above baseline” value worked out at 1.2 fold; the “increase in urinary reporter after initiation of infection relative to pre-infection” value worked out at 1.8 fold; the “ROC AUC, infected from healthy mice” value is 0.86. Also, in assay [1], the “ROC AUC, ciprofloxacin treated from pre-treatment signal (Treatment)” value amounted to 0.88; the “ROC AUC, infected from healthy (Infection)” value came to 0.92; the “ROC AUC, effective versus ineffective treatment (doxycycline-treated vs ciprofloxacin-treated)” value amounted to 0.893. Also, in assay [1] (doxycycline-treated mice), the “urine signal relative to healthy controls” value was “elevated”.
As for “ELA-E: elastase substrate with FAM ligand-encoded reporter and biotin (SEQ ID NO: 48), coupled to 40 kDa 8-arm PEG-MAL ([dE]G[dV][dN][dD][dN][dE][dE]G[dF][dF][dS][dA][dR]K(FAM)GGAAFAGC; also: biotin, site not given here, coupled to 40 kDa 8-arm PEG-MAL, site not given here)”, in assay [1], the “urine signal in ciprofloxacin-treated versus doxycycline-treated mice” value is listed as “not significantly different”; the “urine signal after ciprofloxacin treatment above baseline” value is recorded as 2.2 fold; the “increase in urinary reporter after initiation of infection relative to pre-infection” value was 2.6 fold; the “ROC AUC, infected from healthy mice” value was determined as 1.00. In assay [1], the “ROC AUC, ciprofloxacin treated from pre-treatment signal (Treatment)” value amounted to 0.72; the “ROC AUC, infected from healthy (Infection)” value amounted to 1.00; the “ROC AUC, effective versus ineffective treatment (doxycycline-treated vs ciprofloxacin-treated)” value came to 0.536. For the same substance, in assay [1] (ciprofloxacin-treated mice), the “urine signal relative to healthy controls” value is on record as “robustly elevated”. The “urine signal relative to healthy controls” value in assay [1] (doxycycline-treated mice) is “robustly elevated”.
As for “PP10: ABN: reporter e(+2G)(+6V)ndneeG(+10F)(+1F)s(+1A)r, ANP, substrate ILSRIVGGG, nanocarrier PEG8-40 kDa (chain 1 [dE][+2G][+6V][dN][dD][dN][dE][dE]G[+10F][+1F][dS][+1A][dR][ξβ3hPhg(2-NO2)]; also: ANP photolabile linker joins reporter and substrate, sites not given here, PEG8-40 kDa nanocarrier, site not given here)”, in assay [2], the “protease class(es) cleaving the substrate in vitro” value was “MP/SP/AP”.
As for “PP04: ABN: reporter e(+2G)Vndnee(+2G)FFs(+4A)r, ANP, substrate PLGLRSW, nanocarrier PEG8-40 kDa (chain 1 [dE][+2G]V[dN][dD][dN][dE][dE][+2G]FF[dS][+4A][dR][ξβ3hPhg(2-NO2)]; also: ANP photolabile linker joins reporter and substrate, sites not given here, PEG8-40 kDa nanocarrier, site not given here)”, the “protease class(es) cleaving the substrate in vitro” value in assay [2] is given as “SP/MP”.
